Assay results from US10758620B2, “Potentiated antimicrobial agents” (SEPTEOS, priority 2014, dated 2020).
Like-named read-outs stand apart in the source and are kept apart here.

Key:
Type in all cases: cell-based
E. Coli Strain 08138 = assay: Etest, E. Coli Strain 08138; settings: for MIC: Escherichia coli, read-out: MIC of Pipera tazo, Strain 08138; for MIC of Cefoxitine / MIC of Tigecycline: Strain 08138
Description: (§1) The corresponding tests are made based on the usual MIC test: the Etest® (Biomerieux) strip is deposited onto the surface of a seeded agar medium in which the booster has been incorporated. This test enables solvent effect risks, that is a possible interaction with the solvent used in vitro, to be minimised.
(§2) The control corresponds to the test made without cineol. A control is made in each solvent tested: distilled water, Tween/water and DMSO.
(§3) ED control=antibiotic alone in distilled water
(§4) DMSO control=antibiotic alone in DMSO
(§5) TE control=antibiotic alone in Tween® 80

Strain 10168 SARM = assay: Growth test in liquid medium; settings: compound at a very low dose
Description: The growth tests are made in a liquid medium with prior dispersing the antibiotic booster in a suitable solvent (tween/water).
4XMIC means that the concentration of antibiotic is 4 times higher than its MIC, measured when used alone on the strain considered.

E. Coli Strain 8150 = assay: Etest, E. Coli Strain 8150; settings: for MIC: Escherichia coli, read-out: MIC of Pipera tazo, Strain 8150; for MIC of Meropenem / MIC of Tigecycline / MIC of Pipera tazo: Strain 8150
Description: as §1, §2, §3, §4, §5

[1] = tested on: Strain 09003, methicillin resistant S. aureus (MRSA); assay: Resistance test (resistant mutants), Strain 09003; settings: MRSA, text after Table 15
Method: After 48 h incubation, the presence or absence of colonies likely to be resistant mutants is observed.
ED control or DMSO=only distilled water or DMSO is added
Ciprofloxacine DMSO: addition of Ciprofloxacine in DMSO

MRSA 10178 = assay: Etest, staphylococci MRSA 10178; settings: MRSA 10178
Description: as §1, §2, §3, §4, §5

Staphylococcus = assay: MIC measurement in agar medium (dilution test), Staph; settings: potentiator alone
Description: (§6) Inhibitory minimum concentration measurement tests are made in a solid agar medium according to international standards in force (CLSI M7-A9 Jan 12 standards): dispersion of the compounds to be tested in a Mueller Hinton gelose. An adaptation relating to the hydrophobicity of compounds and compositions is however necessary to disperse them in the medium: dilution of the compounds in a solvent. The compounds and compositions incorporated in the agar medium can be diluted beforehand in one or more solvents (Tween® 80 diluted with water, Tween® 80 diluted with […], DMSO diluted with water). The strains are deposited onto the agar surface with a steers apparatus. In the examples, different dissolution methods for products are tested in parallel to circumvent the problems of water/solvent distribution coefficient of the molecules (antimicrobial and potentiator) whereas the bacteria grow only in the aqueous phase. The technical requirement will not intervene in in vivo tests. The same dilution methods can be implemented in a liquid medium (microplates and tubes). The same methodology is implemented with fungi. […] MIC measurement: the minimum inhibitory concentration measurement tests are made in an agar solid medium according to international standards in force (CLSI standards), according to the previously defined protocol. […] The booster contribution as compared with the MIC of the antibiotic alone is expressed in a (MIC ATB)/(MIC ATB+booster) ratio. Thereby, gains are defined: […]

Pseudomonas Strain 08131 = assay: Etest, Pseudomonas Strain 08131; settings: for MIC: Pseudomonas, STRAIN08131, Strain 08131, read-out: MIC of Pipera tazo; for MIC of Meropenem: Strain 08131
Description: as §1, §2, §3, §4, §5

[2] = tested on: methicillin resistant S. aureus (MRSA) strains 09003, 10168; assay: MIC of the potentiator used alone on the strains of Examples 3 and 4; settings: Staphylococcus aureus, on these strains
Pseudomonas aeruginosa = assay: MIC measurement in agar medium (dilution test), Pyo; settings: potentiator alone
Description: as §6

[3] = booster 1 mg/L in agar, Tween/water
[4] = booster 4 mg/L in agar, Tween/water
[5] = booster 16 mg/L in agar, Tween/water

CC(=O)OCC=Cc1ccccc1 [AC, cinnamyl acetate]
MIC (E. Coli Strain 08138; booster 1 mg/L in agar, DMSO): 6 µg/mL | MIC (E. Coli Strain 08138; [3]): 2 µg/mL | MIC (E. Coli Strain 08138; booster 4 mg/L in agar, DMSO): 4 µg/mL | MIC (E. Coli Strain 08138; [4]): 2 µg/mL | MIC (E. Coli Strain 08138; booster 16 mg/L in agar, DMSO): 8 µg/mL | MIC (E. Coli Strain 08138; [5]): 2 µg/mL | MIC of Cefoxitine (E. Coli Strain 08138; booster 1 mg/L in agar, DMSO): 2 µg/mL | MIC of Tigecycline (E. Coli Strain 08138; booster 1 mg/L in agar, DMSO): 0.38 µg/mL | MIC of Cefoxitine (E. Coli Strain 08138; [3]): 2 µg/mL | MIC of Tigecycline (E. Coli Strain 08138; [3]): 0.25 µg/mL | MIC of Cefoxitine (E. Coli Strain 08138; booster 4 mg/L in agar, DMSO): 1.5 µg/mL | MIC of Tigecycline (E. Coli Strain 08138; booster 4 mg/L in agar, DMSO): 0.38 µg/mL | MIC of Cefoxitine (E. Coli Strain 08138; [4]): 1.5 µg/mL | MIC of Tigecycline (E. Coli Strain 08138; [4]): 0.19 µg/mL | MIC of Cefoxitine (E. Coli Strain 08138; booster 16 mg/L in agar, DMSO): 0.5 µg/mL | MIC of Tigecycline (E. Coli Strain 08138; booster 16 mg/L in agar, DMSO): 0.125 µg/mL | MIC of Cefoxitine (E. Coli Strain 08138; [5]): 4 µg/mL | MIC of Tigecycline (E. Coli Strain 08138; [5]): 0.19 µg/mL | effect of the compound on bactericidal rate of Augmentin (Strain 10168 SARM): enables the bactericidal rate of Augmentin® to be accelerated | MIC (E. Coli Strain 8150; booster 1 mg/L in agar, DMSO): 0.75 µg/mL | MIC (E. Coli Strain 8150; [3]): 0.5 µg/mL | MIC of Meropenem (E. Coli Strain 8150; booster 1 mg/L in agar, DMSO): 0.023 µg/mL | MIC of Tigecycline (E. Coli Strain 8150; booster 1 mg/L in agar, DMSO): 0.064 µg/mL | MIC of Meropenem (E. Coli Strain 8150; [3]): 0.016 µg/mL | MIC of Tigecycline (E. Coli Strain 8150; [3]): 0.064 µg/mL | MIC of Meropenem (E. Coli Strain 8150; booster 4 mg/L in agar, DMSO): < | MIC of Pipera tazo (E. Coli Strain 8150; booster 4 mg/L in agar, DMSO): < | MIC of Tigecycline (E. Coli Strain 8150; booster 4 mg/L in agar, DMSO): < | MIC of Meropenem (E. Coli Strain 8150; [4]): < | MIC of Pipera tazo (E. Coli Strain 8150; [4]): < | MIC of Tigecycline (E. Coli Strain 8150; [4]): < | MIC of Meropenem (E. Coli Strain 8150; booster 16 mg/L in agar, DMSO): < | MIC of Pipera tazo (E. Coli Strain 8150; booster 16 mg/L in agar, DMSO): < | MIC of Tigecycline (E. Coli Strain 8150; booster 16 mg/L in agar, DMSO): < | MIC of Meropenem (E. Coli Strain 8150; [5]): < | MIC of Pipera tazo (E. Coli Strain 8150; [5]): < | MIC of Tigecycline (E. Coli Strain 8150; [5]): < | occurrence of mutants on addition of the compound to ciprofloxacine [1]: does not cause the occurrence of mutants any longer | MIC of Cefoxitine (MRSA 10178; booster 1 mg/L in agar, DMSO): 4 µg/mL | MIC of Tigecycline (MRSA 10178; booster 1 mg/L in agar, DMSO): 0.125 µg/mL | MIC of Cefoxitine (MRSA 10178; [3]): 4 µg/mL | MIC of Tigecycline (MRSA 10178; [3]): 0.125 µg/mL | MIC of Cefoxitine (MRSA 10178; booster 4 mg/L in agar, DMSO): 1 µg/mL | MIC of Tigecycline (MRSA 10178; booster 4 mg/L in agar, DMSO): 0.047 µg/mL | MIC of Cefoxitine (MRSA 10178; [4]): 0.75 µg/mL | MIC of Tigecycline (MRSA 10178; [4]): 0.047 µg/mL | MIC of Cefoxitine (MRSA 10178; booster 16 mg/L in agar, DMSO): <0.016 µg/mL | MIC of Tigecycline (MRSA 10178; booster 16 mg/L in agar, DMSO): <0.016 µg/mL | MIC of Cefoxitine (MRSA 10178; [5]): <0.016 µg/mL | MIC of Tigecycline (MRSA 10178; [5]): <0.016 µg/mL | MIC 50 (Staphylococcus; solvent DMSO): 1.00% | MIC 90 (Staphylococcus; solvent DMSO): 1.00% | MIC 50 (Staphylococcus; solvent Tween/prop glyc): >1% | MIC 90 (Staphylococcus; solvent Tween/prop glyc): >1% | MIC 50 (Staphylococcus; solvent Tween/water): >1% | MIC 90 (Staphylococcus; solvent Tween/water): >1% | MIC 50 (Staphylococcus; solvent water/water): >1% | MIC 90 (Staphylococcus; solvent water/water): >1% | MIC (Pseudomonas Strain 08131; booster 1 mg/L in agar, DMSO): 6 µg/mL | MIC (Pseudomonas Strain 08131; [3]): 6 µg/mL | MIC (Pseudomonas Strain 08131; booster 4 mg/L in agar, DMSO): 3 µg/mL | MIC (Pseudomonas Strain 08131; [4]): 3 µg/mL | MIC (Pseudomonas Strain 08131; booster 16 mg/L in agar, DMSO): 3 µg/mL | MIC (Pseudomonas Strain 08131; [5]): 3 µg/mL | MIC of Meropenem (Pseudomonas Strain 08131; booster 1 mg/L in agar, DMSO): 1.5 µg/mL | MIC of Meropenem (Pseudomonas Strain 08131; [3]): 2 µg/mL | MIC of Meropenem (Pseudomonas Strain 08131; booster 4 mg/L in agar, DMSO): 0.75 µg/mL | MIC of Meropenem (Pseudomonas Strain 08131; [4]): 0.5 µg/mL | MIC of Meropenem (Pseudomonas Strain 08131; booster 16 mg/L in agar, DMSO): 0.75 µg/mL | MIC of Meropenem (Pseudomonas Strain 08131; [5]): 0.38 µg/mL | MIC [2]: > 10000 µg/mL | MIC 50 (Pseudomonas aeruginosa; solvent DMSO): 1.00% | MIC 90 (Pseudomonas aeruginosa; solvent DMSO): 1.00% | MIC 50 (Pseudomonas aeruginosa; solvent Tween/prop glyc): >1% | MIC 90 (Pseudomonas aeruginosa; solvent Tween/prop glyc): >1% | MIC 50 (Pseudomonas aeruginosa; solvent Tween/water): >1% | MIC 90 (Pseudomonas aeruginosa; solvent Tween/water): >1% | MIC 50 (Pseudomonas aeruginosa; solvent water/water): >1% | MIC 90 (Pseudomonas aeruginosa; solvent water/water): >1%
